Reference: publication PMC3927586, “Protein kinase C-delta inactivation inhibits the proliferation and survival of cancer stem cells in culture and in vivo” (BMC Cancer, 2014)

How the values were obtained:
[1] = Drug-like properties: hydrophobicity; assay type: physicochemical
[2] = test system: human breast cancer stem cell (BCSC) xenografts; experiment: Breast cancer stem cell xenograft model; assay type: in vivo, mice; conditions: rottlerin 5,000 μg/kg intraperitoneally, 15 days
Protocol: These studies were performed with the approval of the Institutional Animal Care and Use Committee of Boston University. Breast cancer stem cells (2 × 10^5) grown from a metastatic tumor were suspended in human breast cancer stem cell complete growth media (Celprogen, San Pedro, CA) and injected subcutaneous into the right flank of female J:NU mice (The Jackson Laboratory, ME) under anesthesia. After palpable tumors developed, the mice were divided into two groups of animals. The control group received daily intraperitoneal injections of vehicle (DMSO) while the treatment group received daily intraperitoneal injections of a PKCδ inhibitor (rottlerin 5,000 μg/kg) for 15 days. The length and width of tumors were measured with a vernier caliper and tumor volumes were calculated. Survival was calculated as the day tumors reached the maximum size allowed by the protocol (2 cm diameter).
Figure 6 Effects of PKCδ inhibitor on tumor growth and survival in a xenograft human breast cancer stem cell model. Breast cancer stem cell xenografts were established and animals were treated with vehicle or rottlerin for 15 days, as described in Methods. (A) Tumor volumes plotted over time, until tumors in all the control animals reached the maximum volume allowed by the protocol (approximately 15 days). […]

PrCSC cells = experiment: Cell proliferation (MTT) of prostate cancer stem cells; assay type: cell-based, human; conditions: as early as 24 hr after exposure
Protocol: Cell proliferation was assessed using an MTT [3-(4,5-dimethylthiazol-2-yl)-2,5-diphenyltetrazolium bromide] assay (Roche, Mannheim, Germany). The number of viable cells growing in a single well on a 96-well microtiter plate was estimated by adding 10 μl of MTT solution (5 mg/ml in phosphate-buffered saline [PBS]). After 4 h of incubation at 37°C, the stain was diluted with 100 μl of dimethyl sulfoxide. The optical densities were quantified at a test wavelength of 570 nm and a reference wavelength of 690 nm on a multiwell spectrophotometer. In some assays, MTS was used as substrate (Promega, Madison, WI), and the absorbance of the product was monitored at 490 nm. Cell enumeration was carried out using a hemocytometer, and viable cells identified by trypan blue exclusion.
Figure 2 Effects of PKCδ inhibitors on human cancer stem cells. (A) PCSC and PrCSC cells at 80% confluence were exposed to rottlerin. DMSO served as vehicle control (Vehicle). After 24 and 72 hr of exposure, cell mass was evaluated by MTT assay. […] Cytotoxicity was evaluated by LDH-release assay. […] Viable cells were enumerated and re-plated in media without inhibitor, and colony numbers were quantitated 15 days later. p values for comparison of treatment effects on clonogenic capacity reached significance (p=0.005) at 18 hr of exposure and remained significant for all subsequent exposure times. […]

[3] = test system: normal primary cells or cell lines; conditions: at the concentrations employed herein; cited from earlier work
PCSC = experiment: Clonogenic assay with washout; assay type: cell-based, human; conditions: rottlerin 10 μM, colonies at 15 days
Protocol: 100,000 cells were seeded on 100 mm dishes with 10 ml media per dish. On day 4, cells were treated with a PKCδ inhibitor or vehicle control for either 6, 18, 24 or 48 hours. Cells were trypsinized; counted via the trypan blue exclusion method in order to determine the number of live cells in the sample, and 300 live cells were seeded in triplicate onto 6-well plates. Cells were monitored for appropriate colony size and re-fed every three to four days. At Day 15, cells were stained with ethidium bromide and counted using UVP LabWorks software (Waltham, MA).
Figure 2 Effects of PKCδ inhibitors on human cancer stem cells. (A) PCSC and PrCSC cells at 80% confluence were exposed to rottlerin. DMSO served as vehicle control (Vehicle). After 24 and 72 hr of exposure, cell mass was evaluated by MTT assay. Control values were normalized to 100%. p values for comparison between treatments reached significance at 24 hr of exposure (p≤0.01) for both cell types, and remained significant at 72 hr. […] Cytotoxicity was evaluated by LDH-release assay. […] Viable cells were enumerated and re-plated in media without inhibitor, and colony numbers were quantitated 15 days later. p values for comparison of treatment effects on clonogenic capacity reached significance (p=0.005) at 18 hr of exposure and remained significant for all subsequent exposure times. […]

[4] = mice; cited from earlier work

hydrophobicity [1]	Compound	survival / tumor-free status after treatment ([2]; monitoring continued after cessation)	effect on growth of BCSC xenografts ([2]; nude (J:NU) mice, vs vehicle)	effect on proliferation of PrCSC (PrCSC cells)	cytostatic or cytotoxic effect on normal primary cells or cell lines [3]	decrease of clonogenic capacity of PCSC (PCSC; 18 hr exposure then washout)	reduction of clonogenic potential of PCSC (PCSC; 48 hr exposure then washout)	tolerability when administered orally or intraperitoneally [4]
highly hydrophobic	CC1(C)C=Cc2cc(CCn3c4ccccc4c4ccccc43)cc(C=O)c2O1 [BJE6-106, 6-(2-(9H-carbazol-9-yl)ethyl)-2,2-dimethyl-2H-chromene-8-carbaldehyde]	–	–	–	–	–	–	–
–	CC(=O)c1c(O)c(C)c(O)c(Cc2c(O)c3c(c(C(=O)/C=C/c4ccccc4)c2O)OC(C)(C)C=C3)c1O [rottlerin, Rottlerin, reference compound]	some animals remaining tumor-free even at day 300	effectively inhibited the growth of the xenografts, even producing tumor regression	significant dose-dependent inhibition of proliferation	not cytostatic or cytotoxic	40%	more than 90%	well-tolerated
